Columns and labels:
COR-L279 = test: SANGER: Inhibition of human COR-L279 cell growth in a cell viability assay.; type: functional, cell-based
CPC-N = test: cells; type: functional, cell-based; details: Homo sapiens;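 also: growth inhibition of CPC-N cells, with a cell viability assay as the readout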
Description: SANGER: Inhibition of human CPC-N cell growth in a cell viability assay.

DU-145 = test: cells; type: functional, cell-based, Homo sapiens; details: Homo sapiens, DU-145
Description: SANGER: Inhibition of human DU-145 cell growth in a cell viability assay.

HN = test: cells; type: functional, cell-based, Homo sapiens; details: Homo sapiens, HN
Description: SANGER: Inhibition of human HN cell growth in a cell viability assay.

HuO9 = test: cells; type: functional, cell-based, Homo sapiens; details: Homo sapiens, HuO9;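 also: growth inhibition of HuO9 cells, read out with a cell viability assay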
Description: SANGER: Inhibition of human HuO9 cell growth in a cell viability assay.

IST-SL2 = test: cells; type: functional, cell-based; details: Homo sapiens;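 also: growth inhibition of human IST-SL2 cells, read out by a cell viability assay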
Description: SANGER: Inhibition of human IST-SL2 cell growth in a cell viability assay.

JIYOYE = test: cells; type: functional, cell-based; details: Homo sapiens
Description: SANGER: Inhibition of human JiyoyeP-2003 cell growth in a cell viability assay.

KNS-81-FD = test: cells; type: functional, cell-based, Homo sapiens; details: Homo sapiens, KNS-81-FD;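 also: growth inhibition of KNS-81-FD cells, read out with a cell viability assay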
Description: SANGER: Inhibition of human KNS-81-FD cell growth in a cell viability assay.

L-540 = test: cells; type: functional, cell-based; details: Homo sapiens;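 also: growth inhibition of the human L-540 cell line, read out with a viability assay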
Description: SANGER: Inhibition of human L-540 cell growth in a cell viability assay.

LAMA-84 = test: cells; type: functional, cell-based; details: Homo sapiens;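 also: growth inhibition of LAMA-84 cells, read out with a cell viability assay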
Description: SANGER: Inhibition of human LAMA-84 cell growth in a cell viability assay.

LAN-6 = test: cells; type: functional, cell-based, Homo sapiens; details: Homo sapiens, LAN-6;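 also: growth inhibition of LAN-6 cells, determined with a cell viability assay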
Description: SANGER: Inhibition of human LAN-6 cell growth in a cell viability assay.

LB996-RCC = test: cells; type: functional, cell-based; details: Homo sapiens
Description: SANGER: Inhibition of human LB996-RCC cell growth in a cell viability assay.

LU-165 = test: cells; type: functional, cell-based; details: Homo sapiens
Description: SANGER: Inhibition of human LU-165 cell growth in a cell viability assay.

NALM-6 = test: cells; type: functional, cell-based; details: Homo sapiens;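 also: growth inhibition of NALM-6 cells, read out with a cell viability assay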
Description: SANGER: Inhibition of human NALM-6 cell growth in a cell viability assay.

NCCIT = test: SANGER: Inhibition of human NCCIT cell growth in a cell viability assay.; type: functional, cell-based
NCI-H1092 = test: cells; type: functional, cell-based; details: Homo sapiens
Description: SANGER: Inhibition of human NCI-H1092 cell growth in a cell viability assay.

NCI-H1304 = test: cells; type: functional, cell-based; details: Homo sapiens;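 also: growth inhibition of the cancer cell line, measured in a cell viability assay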
Description: SANGER: Inhibition of human NCI-H1304 cell growth in a cell viability assay.

NCI-H1417 = test: cells; type: functional, cell-based; details: Homo sapiens;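 also: human NCI-H1417 cells, growth inhibition determined with a cell viability readout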
Description: SANGER: Inhibition of human NCI-H1417 cell growth in a cell viability assay.

NCI-H1436 = test: cells; type: functional, cell-based; details: Homo sapiens;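 also: growth suppression of human NCI-H1436 cells, determined with a cell viability readout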
Description: SANGER: Inhibition of human NCI-H1436 cell growth in a cell viability assay.

NCI-H1648 = test: cells; type: functional, cell-based, Homo sapiens; details: Homo sapiens, NCI-H1648;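 also: cell viability assay measuring inhibition of NCI-H1648 cell growth, from the Sanger screening data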
Description: SANGER: Inhibition of human NCI-H1648 cell growth in a cell viability assay.

NCI-H187 = test: cells; type: functional, cell-based; details: Homo sapiens;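 also: growth inhibition of NCI-H187 cells, read out as cell viability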
Description: SANGER: Inhibition of human NCI-H187 cell growth in a cell viability assay.

NCI-H2141 = test: cells; type: functional, cell-based; details: Homo sapiens;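 also: growth inhibition of human NCI-H2141 cells, read out with a cell viability assay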
Description: SANGER: Inhibition of human NCI-H2141 cell growth in a cell viability assay.

NCI-H2171 = test: cells; type: functional, cell-based; details: Homo sapiens;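 also: growth inhibition of human NCI-H2171 cells, read out by a cell viability assay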
Description: SANGER: Inhibition of human NCI-H2171 cell growth in a cell viability assay.

NCI-H2405 = test: cells; type: functional, cell-based, Homo sapiens; details: Homo sapiens, NCI-H2405;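 also: growth inhibition of the human cell line, read out with a cell viability assay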
Description: SANGER: Inhibition of human NCI-H2405 cell growth in a cell viability assay.

NCI-H345 = test: cells; type: functional, cell-based; details: Homo sapiens;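 also: growth inhibition of NCI-H345 cells measured with a cell viability assay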
Description: SANGER: Inhibition of human NCI-H345 cell growth in a cell viability assay.

NCI-H524 = test: cells; type: functional, cell-based; details: Homo sapiens;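 also: growth inhibition of human NCI-H524 cells, read out through a cell viability assay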
Description: SANGER: Inhibition of human NCI-H524 cell growth in a cell viability assay.

NCI-H716 = test: cells; type: functional, cell-based; details: Homo sapiens;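 also: growth inhibition of human NCI-H716 cells, measured by a cell viability assay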
Description: SANGER: Inhibition of human NCI-H716 cell growth in a cell viability assay.

NCI-H748 = test: cells; type: functional, cell-based; details: Homo sapiens;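 also: growth inhibition of NCI-H748 cells, measured by a cell viability assay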
Description: SANGER: Inhibition of human NCI-H748 cell growth in a cell viability assay.

NCI-H810 = test: cells; type: functional, cell-based, Homo sapiens; details: Homo sapiens, NCI-H810;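 also: IC50 reflects inhibition of cancer cell line growth, read out with a cell viability assay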
Description: SANGER: Inhibition of human NCI-H810 cell growth in a cell viability assay.

NCI-H82 = test: cells; type: functional, cell-based; details: Homo sapiens;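 also: growth inhibition of NCI-H82 cells, measured with a cell viability readout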
Description: SANGER: Inhibition of human NCI-H82 cell growth in a cell viability assay.

NCI-H889 = test: cells; type: functional, cell-based; details: Homo sapiens;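 also: cell growth inhibition of the cell line, read out with a viability assay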
Description: SANGER: Inhibition of human NCI-H889 cell growth in a cell viability assay.

SNU-16 = test: cells; type: functional, cell-based; details: Homo sapiens;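 also: growth inhibition of human SNU-16 cells, determined with a cell viability readout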
Description: SANGER: Inhibition of human NCI-SNU-16 cell growth in a cell viability assay.

NOMO-1 = test: cells; type: functional, cell-based; details: Homo sapiens;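 also: growth inhibition of human NOMO-1 cells measured by a cell viability assay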
Description: SANGER: Inhibition of human NOMO-1 cell growth in a cell viability assay.

OAW-28 = test: cells; type: functional, cell-based, Homo sapiens; details: Homo sapiens, OAW-28;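 also: growth inhibition of OAW-28 cells, read out with a cell viability assay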
Description: SANGER: Inhibition of human OAW-28 cell growth in a cell viability assay.

Panc1005 = test: cells; type: functional, cell-based, Homo sapiens; details: Homo sapiens, Panc1005;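 also: growth inhibition of human PANC-10-05 cells, measured by a cell viability assay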
Description: SANGER: Inhibition of human PANC-10-05 cell growth in a cell viability assay.

RPMI-6666 = test: cells; type: functional, cell-based; details: Homo sapiens
Description: SANGER: Inhibition of human RPMI-6666 cell growth in a cell viability assay.

RPMI 8402 = test: SANGER: Inhibition of human RPMI-8402 cell growth in a cell viability assay.; type: functional, cell-based
SCLC-21H = test: cells; type: functional, cell-based; details: Homo sapiens;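 also: growth inhibition of cultured human SCLC-21H cells, read out with a cell viability assay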
Description: SANGER: Inhibition of human SCLC-21H cell growth in a cell viability assay.

SJRH30 = test: cells; type: functional, cell-based; details: Homo sapiens;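 also: growth inhibition of human SJRH30 cells, read out with a cell viability assay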
Description: SANGER: Inhibition of human SJRH30 cell growth in a cell viability assay.

SNU-C1 = test: cells; type: functional, cell-based; details: Homo sapiens;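 also: growth inhibition of SNU-C1 human cells, read out by a cell viability assay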
Description: SANGER: Inhibition of human SNU-C1 cell growth in a cell viability assay.

SR = test: cells; type: functional, cell-based; details: Homo sapiens
Description: SANGER: Inhibition of human SR cell growth in a cell viability assay.

SW872 = test: cells; type: functional, cell-based, Homo sapiens; details: Homo sapiens, SW872;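 also: growth inhibition of SW872 cells, read out by a viability assay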
Description: SANGER: Inhibition of human SW872 cell growth in a cell viability assay.

SAOS-2 = test: cells; type: functional, cell-based, Homo sapiens; details: Homo sapiens, SAOS-2;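 also: growth inhibition of human Saos-2 cells determined by a cell viability assay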
Description: SANGER: Inhibition of human Saos-2 cell growth in a cell viability assay.

23132-87 = test: cells; type: functional, cell-based, Homo sapiens; details: Homo sapiens
Description: SANGER: Inhibition of human 23132-87 cell growth in a cell viability assay.

8505C = test: cells; type: functional, cell-based, Homo sapiens; details: Homo sapiens, 8505C
Description: SANGER: Inhibition of human 8505C cell growth in a cell viability assay.

A704 = test: cells; type: functional, cell-based, Homo sapiens; details: Homo sapiens, A704;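 also: growth inhibition of human A704 cells, read out with a cell viability assay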
Description: SANGER: Inhibition of human A704 cell growth in a cell viability assay.

ARH-77 = test: cells; type: functional, cell-based; details: Homo sapiens;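 also: growth inhibition of ARH-77 cells, read out by a cell viability assay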
Description: SANGER: Inhibition of human ARH-77 cell growth in a cell viability assay.

BL-41 = test: cells; type: functional, cell-based; details: Homo sapiens;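 also: growth inhibition of human BL-41 cells, read out with a cell viability assay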
Description: SANGER: Inhibition of human BL-41 cell growth in a cell viability assay.

CAL-148 = test: cells; type: functional, cell-based; details: Homo sapiens
Description: SANGER: Inhibition of human CAL-148 cell growth in a cell viability assay.

CAL-33 = test: cells; type: functional, cell-based, Homo sapiens; details: Homo sapiens, CAL-33;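 also: growth inhibition of CAL-33 cells, read out with a cell viability assay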
Description: SANGER: Inhibition of human CAL-33 cell growth in a cell viability assay.

CAL-62 = test: cells; type: functional, cell-based, Homo sapiens; details: Homo sapiens, CAL-62;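 also: growth inhibition of CAL-62 cells, read out with a cell viability assay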
Description: SANGER: Inhibition of human CAL-62 cell growth in a cell viability assay.

TE-441-T = test: cells; type: functional, cell-based; details: Homo sapiens
Description: SANGER: Inhibition of human TE-441-T cell growth in a cell viability assay.

CMK = test: cells; type: functional, cell-based; details: Homo sapiens;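 also: growth inhibition of CMK cells, read out as cell viability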
Description: SANGER: Inhibition of human CMK cell growth in a cell viability assay.

COC(=O)CNC(=O)C(=O)OC
IC50 (COR-L279): > 4000 µM | IC50 (CPC-N): > 4000 µM | IC50 (DU-145): 825 µM | IC50 (HN): 1030 µM | IC50 (HuO9): 589 µM | IC50 (IST-SL2): 157 µM | IC50 (JIYOYE): 291 µM | IC50 (KNS-81-FD): 1850 µM | IC50 (L-540): 239 µM | IC50 (LAMA-84): 2110 µM | IC50 (LAN-6): 2080 µM | IC50 (LB996-RCC): 6.59 µM | IC50 (LU-165): 804 µM | IC50 (NALM-6): 85 µM | IC50 (NCCIT): 99.8 µM | IC50 (NCI-H1092): 1200 µM | IC50 (NCI-H1304): 533 µM | IC50 (NCI-H1417): 2380 µM | IC50 (NCI-H1436): > 4000 µM | IC50 (NCI-H1648): 1670 µM | IC50 (NCI-H187): 595 µM | IC50 (NCI-H2141): 351 µM | IC50 (NCI-H2171): > 4000 µM | IC50 (NCI-H2405): 261 µM | IC50 (NCI-H345): 648 µM | IC50 (NCI-H524): 2760 µM | IC50 (NCI-H716): 1740 µM | IC50 (NCI-H748): 254 µM | IC50 (NCI-H810): 630 µM | IC50 (NCI-H82): > 4000 µM | IC50 (NCI-H889): > 4000 µM | IC50 (SNU-16): > 4000 µM | IC50 (NOMO-1): 154 µM | IC50 (OAW-28): 2110 µM | IC50 (Panc1005): 264 µM | IC50 (RPMI-6666): 228 µM | IC50 (RPMI 8402): 313 µM | IC50 (SCLC-21H): > 4000 µM | IC50 (SJRH30): 1550 µM | IC50 (SNU-C1): 2100 µM | IC50 (SR): 4.58 µM | IC50 (SW872): 603 µM | IC50 (SAOS-2): 193 µM | IC50 (23132-87): > 4000 µM | IC50 (8505C): 678 µM | IC50 (A704): 1140 µM | IC50 (ARH-77): 260 µM | IC50 (BL-41): 54.9 µM | IC50 (CAL-148): > 4000 µM | IC50 (CAL-33): 242 µM | IC50 (CAL-62): 1050 µM | IC50 (TE-441-T): 1870 µM | IC50 (CMK): 126 µM

CCC1=C[C@@H]2CN(C1)Cc1c([nH]c3ccccc13)[C@@](C(=O)OC)(c1cc3c(cc1OC)N(C)[C@H]1[C@@](O)(C(=O)OC)[C@H](OC(C)=O)[C@]4(CC)C=CCN5CC[C@]31[C@@H]54)C2 [VINORELBINE]
IC50 (COR-L279): > 0.064 µM | IC50 (CPC-N): > 0.064 µM | IC50 (DU-145): 0.00481 µM | IC50 (HN): > 0.064 µM | IC50 (HuO9): 0.00709 µM | IC50 (IST-SL2): 0.0171 µM | IC50 (JIYOYE): 0.0107 µM | IC50 (KNS-81-FD): > 0.064 µM | IC50 (L-540): 0.03 µM | IC50 (LAMA-84): 0.0458 µM | IC50 (LAN-6): > 0.064 µM | IC50 (LB996-RCC): > 0.064 µM | IC50 (LU-165): > 0.064 µM | IC50 (NALM-6): 0.00594 µM | IC50 (NCCIT): 0.00542 µM | IC50 (NCI-H1092): 0.0581 µM | IC50 (NCI-H1304): 0.0352 µM | IC50 (NCI-H1417): 0.0241 µM | IC50 (NCI-H1436): 0.0136 µM | IC50 (NCI-H1648): 0.00392 µM | IC50 (NCI-H187): 0.014 µM | IC50 (NCI-H2141): 0.039 µM | IC50 (NCI-H2171): > 0.064 µM | IC50 (NCI-H2405): 0.0507 µM | IC50 (NCI-H345): 0.0449 µM | IC50 (NCI-H524): > 0.064 µM | IC50 (NCI-H716): > 0.064 µM | IC50 (NCI-H748): 0.057 µM | IC50 (NCI-H810): 0.00391 µM | IC50 (NCI-H82): 0.06 µM | IC50 (NCI-H889): 0.0403 µM | IC50 (SNU-16): 0.0386 µM | IC50 (NOMO-1): 0.019 µM | IC50 (OAW-28): 0.0152 µM | IC50 (Panc1005): 0.00352 µM | IC50 (RPMI-6666): 0.00686 µM | IC50 (RPMI 8402): 0.0123 µM | IC50 (SCLC-21H): > 0.064 µM | IC50 (SJRH30): 0.0293 µM | IC50 (SNU-C1): > 0.064 µM | IC50 (SR): 0.00584 µM | IC50 (SW872): 0.00565 µM | IC50 (SAOS-2): > 0.064 µM | IC50 (23132-87): 0.00695 µM | IC50 (8505C): 0.00442 µM | IC50 (A704): > 0.064 µM | IC50 (ARH-77): 0.0178 µM | IC50 (BL-41): 0.00528 µM | IC50 (CAL-148): 0.0154 µM | IC50 (CAL-33): 0.00502 µM | IC50 (CAL-62): 0.00818 µM | IC50 (TE-441-T): 0.0349 µM | IC50 (CMK): 0.0137 µM

Reference: ChEMBL document CHEMBL1201861, “Genomics of Drug Sensitity in Cancer screening data, Wellcome Trust Sanger Institute”
